Tests used:
Assay type in all cases: in vivo
[1] = test system: barnyardgrass (Echinochloa crus-galli); assay: Test C flooded paddy test; conditions: for Barnyardgrass plant response rating: scale 0 to 100, 0 no effect, 100 complete control
Protocol: (§1) At the same time, plants selected from these crop and weed species and also winter barley (Hordeum vulgare), blackgrass (Alopecurus myosuroides), canary grass (Phalaris minor), chickweed (Stellaria media), downy brome (Bromus tectorum), green foxtail (Setaria viridis), Italian ryegrass (Lolium multiflorum), wheat (Triticum aestivum), wild oat (Avena fatua) and windgrass (Apera spica-venti) were treated with postemergence applications of some of the test chemicals formulated in the same manner. Plants ranged in height from 2 to 18 cm (1- to 4-leaf stage) for postemergence treatments. Plant species in the flooded paddy test consisted of rice (Oryza saliva), smallflower flatsedge (Cyperus difformis), duck salad (Heteranthera limosa) and barnyardgrass (Echinochloa crus-galli) grown to the 2-leaf stage for testing. Treated plants and controls were maintained in a greenhouse for 12 to 14 days, after which time all species were compared to controls and visually evaluated. Plant response ratings, summarized in Table C, are based on a scale of 0 to 100 where 0 is no effect and 100 is complete control. A dash (-) response means no test result.

rice (Oryza saliva) [2] = assay: Test C flooded paddy test; conditions: for Rice plant response rating: scale 0 to 100, 0 no effect, 100 complete control
Protocol: as §1

[3] = test system: duck salad (Heteranthera limosa); assay: Test C flooded paddy test; conditions: for Ducksalad plant response rating: scale 0 to 100, 0 no effect, 100 complete control
Protocol: as §1

[4] = test system: smallflower flatsedge (Cyperus difformis); assay: Test C flooded paddy test; conditions: for Flatsedge plant response rating: Flooded Paddy, scale 0 to 100, 0 no effect, 100 complete control; for Plant response rating, Flatsedge: scale 0 to 100 (0 no effect, 100 complete control)
Protocol: as §1

[5] = test system: barnyardgrass (Echinochloa crus-galli); assay: Test B preemergence
Source text: (§2) Seeds selected from barnyardgrass (Echinochloa crus-galli), Surinam grass (Brachiaria decumbens), cocklebur (Xanthium strumarium), corn (Zea mays), crabgrass (Digitaria sanguinalis), giant foxtail (Setaria faberii), lambsquarters (Chenopodium album), morning glory (Ipomoea hederacea), pigweed (Amaranthus retroflexus), rice (Oryza saliva) and velvetleaf (Abutilon theophrasti) were planted and treated preemergence with test chemicals formulated in a non-phytotoxic solvent mixture which included a surfactant.
(§3) At the same time, plants selected from these crop and weed species and also blackgrass (Alopecurus myosuroides), wheat (Triticum aestivum) and wild oat (Avena fatua) were treated with postemergence applications of test chemicals formulated in the same manner. Plants ranged in height from 2 to 18 cm (1- to 4-leaf stage) for postemergence treatments. Plant species in the flooded paddy test consisted of rice (Oryza saliva), smallflower flatsedge (Cyperus difformis), duck salad (Heteranthera limosa) and barnyardgrass (Echinochloa crus-galli) grown to the 2-leaf stage for testing. Treated plants and controls were maintained in a greenhouse for 13 to 15 days, after which time all species were compared to controls and visually evaluated. Plant response ratings, summarized in Table B, are based on a scale of 0 to 100 where 0 is no effect and 100 is complete control. A dash (-) response means no test result.

[6] = test system: morning glory (Ipomoea hederacea); assay: Test B preemergence
Source text: as §2, §3

[7] = test system: crabgrass (Digitaria sanguinalis); assay: Test B preemergence
Source text: as §2, §3

[8] = test system: velvetleaf (Abutilon theophrasti); assay: Test B preemergence
Source text: as §2, §3

rice (Oryza saliva) [9] = assay: Test B preemergence
Source text: as §2, §3

[10] = test system: giant foxtail (Setaria faberii); assay: Test B preemergence
Source text: as §2, §3

[11] = test system: cocklebur (Xanthium strumarium); assay: Test B preemergence
Source text: as §2, §3

[12] = test system: Surinam grass (Brachiaria decumbens); assay: Test B preemergence
Source text: as §2, §3

[13] = test system: lambsquarters (Chenopodium album); assay: Test B preemergence
Source text: as §2, §3

[14] = test system: pigweed (Amaranthus retroflexus); assay: Test B preemergence
Source text: as §2, §3

corn (Zea mays) [15] = assay: Test B preemergence
Source text: as §2, §3

[16] = test system: barnyardgrass (Echinochloa crus-galli); assay: Test B postemergence; conditions: 13 to 15 days
Source text: as §2, §3

[17] = test system: blackgrass (Alopecurus myosuroides); assay: Test B postemergence; conditions: 13 to 15 days
Source text: as §2, §3

[18] = test system: crabgrass (Digitaria sanguinalis); assay: Test B postemergence; conditions: 13 to 15 days
Source text: as §2, §3

[19] = test system: giant foxtail (Setaria faberii); assay: Test B postemergence; conditions: 13 to 15 days
Source text: as §2, §3

[20] = test system: Surinam grass (Brachiaria decumbens); assay: Test B postemergence; conditions: 13 to 15 days
Source text: as §2, §3

corn (Zea mays) [21] = assay: Test B postemergence; conditions: 13 to 15 days
Source text: as §2, §3

[22] = test system: morning glory (Ipomoea hederacea); assay: Test B postemergence; conditions: Rate 500 g/ha, scale 0 to 100, 0 is no effect, 100 is complete control, 13 to 15 days
Source text: as §2, §3

[23] = test system: velvetleaf (Abutilon theophrasti); assay: Test B postemergence; conditions: Rate 500 g/ha, scale 0 to 100, 0 is no effect, 100 is complete control, 13 to 15 days
Source text: as §2, §3

[24] = test system: wheat (Triticum aestivum); assay: Test B postemergence; conditions: Rate 500 g/ha, scale 0 to 100, 0 is no effect, 100 is complete control, 13 to 15 days
Source text: as §2, §3

[25] = test system: lambsquarters (Chenopodium album); assay: Test B postemergence; conditions: Rate 500 g/ha, scale 0 to 100, 0 is no effect, 100 is complete control, 13 to 15 days
Source text: as §2, §3

wild oat (Avena fatua) = assay: Test B postemergence; conditions: Rate 500 g/ha, scale 0 to 100, 0 is no effect, 100 is complete control, 13 to 15 days
Source text: as §2, §3

[26] = test system: pigweed (Amaranthus retroflexus); assay: Test B postemergence; conditions: Rate 500 g/ha, scale 0 to 100, 0 is no effect, 100 is complete control, 13 to 15 days
Source text: as §2, §3

[27] = flooded paddy test, Rate 62 g/ha, scale 0 to 100 (0 no effect, 100 complete control)
[28] = flooded paddy test, Rate 125 g/ha, scale 0 to 100 (0 no effect, 100 complete control)
[29] = flooded paddy test, Rate 62 g/ha
[30] = flooded paddy test, Rate 125 g/ha
[31] = preemergence, Rate 125 g/ha, scale of 0 to 100 where 0 is no effect and 100 is complete control, 13 to 15 days
[32] = Rate 125 g/ha, scale 0 (no effect) to 100 (complete control)
[33] = Preemergence, Rate 500 g/ha, scale 0 to 100, 0 no effect, 100 complete control
[34] = Rate 500 g/ha, scale 0 to 100, 0 is no effect, 100 is complete control
[35] = Flooded Paddy, Rate 1000 g/ha, scale 0 to 100
[36] = flooded paddy test, Rate 250 g/ha, scale 0 to 100 (0 no effect, 100 complete control)
[37] = flooded paddy test, Rate 62 g/ha, visually evaluated after 12 to 14 days, 0 = no effect, 100 = complete control

Structure (SMILES): CCCCC(C)c1ccn(C2OCN(c3cccc(OC(F)(F)F)c3)C2=O)n1 (stereo not drawn) [Compound 97]
- Barnyardgrass plant response rating ([1]; Flooded Paddy, Rate 500 g/ha): 100
- Plant response rating, Barnyardgrass [1, 27]: 0
- Plant response rating, Barnyardgrass [1, 28]: 40
- Rice plant response rating (rice (Oryza saliva) [2]; Flooded Paddy, Rate 500 g/ha): 20
- Plant response rating, Rice (rice (Oryza saliva) [2]; [27]): 0
- Plant response rating, Rice (rice (Oryza saliva) [2]; [28]): 20
- Ducksalad plant response rating ([3]; Flooded Paddy, Rate 500 g/ha): 0
- Plant response rating, Ducksalad [3, 27]: 0
- Plant response rating, Ducksalad [3, 28]: 0
- Flatsedge plant response rating ([4]; Rate 500 g/ha): 90
- Plant response rating, Flatsedge [4, 29]: 30
- Plant response rating, Flatsedge [4, 30]: 90
- Plant response rating, Barnyardgrass [5, 31]: 30
- Plant response rating, Morningglory [6, 31]: 0
- Plant response rating, Crabgrass [7, 31]: 20
- Plant response rating, Velvetleaf [8, 31]: 0
- Plant response rating, Rice (rice (Oryza saliva) [9]; [31]): 0
- Plant response rating, Foxtail, Giant [10, 31]: 20
- Plant response rating, Cocklebur [11, 31]: 0
- Plant response rating, Surinam grass [12, 31]: 0
- Plant response rating, Lambsquarters [13, 31]: 20
- Plant response rating, Pigweed [14, 31]: 0
- Plant response rating, Corn (corn (Zea mays) [15]; [31]): 0
- Plant response rating, Barnyardgrass [16, 32]: 0
- Plant response rating, Blackgrass [17, 32]: 0
- Plant response rating, Crabgrass [18, 32]: 0
- Plant response rating, Foxtail, Giant [19, 32]: 0
- Plant response rating, Surinam grass [20, 32]: 0
- Plant response rating, Corn (corn (Zea mays) [21]; [32]): 0

Structure (SMILES): CC(C)(C)c1ccn(C2CCN(c3ccc4c(c3)CCC4)C2=O)n1 (stereo not drawn) [Compound 105]
- Barnyardgrass plant response rating ([1]; Flooded Paddy, Rate 250 g/ha): 20
- Barnyardgrass plant response rating ([1]; Flooded Paddy, Rate 500 g/ha): 60
- Plant response rating, Barnyardgrass [1, 27]: 0
- Plant response rating, Barnyardgrass [1, 28]: 0
- Rice plant response rating (rice (Oryza saliva) [2]; Flooded Paddy, Rate 250 g/ha): 20
- Rice plant response rating (rice (Oryza saliva) [2]; Flooded Paddy, Rate 500 g/ha): 30
- Plant response rating, Rice (rice (Oryza saliva) [2]; [27]): 0
- Plant response rating, Rice (rice (Oryza saliva) [2]; [28]): 0
- Ducksalad plant response rating ([3]; Flooded Paddy, Rate 250 g/ha): 0
- Ducksalad plant response rating ([3]; Flooded Paddy, Rate 500 g/ha): 0
- Plant response rating, Ducksalad [3, 27]: 0
- Plant response rating, Ducksalad [3, 28]: 0
- Flatsedge plant response rating ([4]; Rate 250 g/ha): 90
- Flatsedge plant response rating ([4]; Rate 500 g/ha): 90
- Plant response rating, Flatsedge [4, 29]: 40
- Plant response rating, Flatsedge [4, 30]: 90
- Plant response rating, Barnyardgrass [5, 33]: 0
- Plant response rating, Barnyardgrass [5, 31]: 0
- Plant response rating, Morningglory [6, 33]: 0
- Plant response rating, Morningglory [6, 31]: 0
- Plant response rating, Crabgrass [7, 33]: 30
- Plant response rating, Crabgrass [7, 31]: 0
- Plant response rating, Velvetleaf [8, 33]: 0
- Plant response rating, Velvetleaf [8, 31]: 0
- Plant response rating, Rice (rice (Oryza saliva) [9]; [33]): 0
- Plant response rating, Rice (rice (Oryza saliva) [9]; [31]): 0
- Plant response rating, Foxtail, Giant [10, 33]: 20
- Plant response rating, Foxtail, Giant [10, 31]: 0
- Plant response rating, Cocklebur [11, 33]: 0
- Plant response rating, Cocklebur [11, 31]: 0
- Plant response rating, Surinam grass [12, 33]: 0
- Plant response rating, Surinam grass [12, 31]: 0
- Plant response rating, Lambsquarters [13, 33]: 100
- Plant response rating, Lambsquarters [13, 31]: 60
- Plant response rating, Pigweed [14, 33]: 100
- Plant response rating, Pigweed [14, 31]: 0
- Plant response rating, Corn (corn (Zea mays) [15]; [33]): 0
- Plant response rating, Corn (corn (Zea mays) [15]; [31]): 0
- Plant response rating, Barnyardgrass [16, 32]: 0
- Plant response rating, Barnyardgrass [16, 34]: 0
- Plant response rating, Blackgrass [17, 32]: 0
- Plant response rating, Blackgrass [17, 34]: 0
- Plant response rating, Morningglory [22]: 0
- Plant response rating, Crabgrass [18, 32]: 0
- Plant response rating, Crabgrass [18, 34]: 0
- Plant response rating, Velvetleaf [23]: 0
- Plant response rating, Foxtail, Giant [19, 32]: 0
- Plant response rating, Foxtail, Giant [19, 34]: 0
- Plant response rating, Wheat [24]: 0
- Plant response rating, Surinam grass [20, 32]: 0
- Plant response rating, Surinam grass [20, 34]: 0
- Plant response rating, Lambsquarters [25]: 0
- Plant response rating, Wild Oat (wild oat (Avena fatua)): 0
- Plant response rating, Pigweed [26]: 0
- Plant response rating, Corn (corn (Zea mays) [21]; [32]): 0
- Plant response rating, Corn (corn (Zea mays) [21]; [34]): 0

Structure (SMILES): CC(C)(C)C1=NN(C2CCN(c3cccc(C(F)(F)F)c3)C2=O)CC1 (stereo not drawn) [Compound 135]
- Plant response rating, Barnyardgrass [1, 35]: 30
- Barnyardgrass plant response rating ([1]; Flooded Paddy, Rate 500 g/ha): 20
- Plant response rating, Barnyardgrass [1, 28]: 0
- Plant response rating, Barnyardgrass [1, 36]: 0
- Plant response rating (scale 0 to 100), Barnyardgrass [1, 37]: 0
- Plant response rating, Rice (rice (Oryza saliva) [2]; [35]): 0
- Rice plant response rating (rice (Oryza saliva) [2]; Flooded Paddy, Rate 500 g/ha): 0
- Plant response rating, Rice (rice (Oryza saliva) [2]; [28]): 0
- Plant response rating, Rice (rice (Oryza saliva) [2]; [36]): 0
- Plant response rating (scale 0 to 100), Rice (rice (Oryza saliva) [2]; [37]): 0
- Plant response rating, Ducksalad [3, 35]: 30
- Ducksalad plant response rating ([3]; Flooded Paddy, Rate 500 g/ha): 0
- Plant response rating, Ducksalad [3, 28]: 0
- Plant response rating, Ducksalad [3, 36]: 0
- Plant response rating (scale 0 to 100), Ducksalad [3, 37]: 0
- Flatsedge plant response rating ([4]; Rate 500 g/ha): 90
- Flatsedge plant response rating ([4]; rate of this column group stands in head line r653, not shown (group before Rate 500 g/ha)): 100
- Plant response rating, Flatsedge [4, 30]: 20
- Plant response rating, Flatsedge ([4]; flooded paddy test, Rate 250 g/ha): 90
- Plant response rating (scale 0 to 100), Flatsedge [4, 37]: 0

Source: patent publication US7138361B2, “Herbicidal heterocycles” (E. I. du Pont de Nemours and Company, priority 2000, dated 2006)
